The results in this text go back to patent publication US20120157388A1, “EXTERNAL COMPOSITION FOR SKIN” (Shiseido Company, Ltd., priority 2007, published 2012).

A short description of this series: Stability evaluation of lotion (appearance and smell after storage). It counts as physicochemical. Conditions: 50° C., one month. The protocol:
For L-lysyl-β-alanine hydrochloride (Example 2), L-lysine (Comparative Example 6), and β-alanine (Comparative Example 7), the following external composition for skin was prepared, and the stability thereof was evaluated.
50 g each of Example 2, Comparative Example 6 and
Comparative Example 7 was placed in a 50 ml screw tube and capped. After storing them in a 50° C. incubator for one month, changes in appearance and smell were judged according to the following criteria.

`NCCCC[C@H](N)C(=O)NCCC(=O)O` [L-lysyl-β-alanine]: the “stability in appearance (in words)” value is recorded as “excellently stable” and the “stability in smell (in words)” value is recorded as “excellently stable”.
